Test results published in patent US10968222B2, “2-azabicyclo hexane JAK inhibitor compound” (THERAVANCE BIOPHARMA R&D IP, LLC, priority 2018, dated 2021).

Molecular target: T1, VEGFR2 (Homo sapiens, UniProt P35968)
T1 construct: made in house; host or cells: E. coli BL21-derived host (T7 phage) or HEK-293 cells
Experiment: Kinome screen, VEGFR2
Assay type: binding
Conditions: screened at 1 μM
Description: Compounds 1 and C-1 were screened against other kinases to evaluate their selectivity profile.
Kinase-tagged T7 phage strains were grown in parallel in 24-well blocks in an E. coli host derived from the BL21 strain. E. coli were grown to log-phase and infected with T7 phage from a frozen stock (multiplicity of infection=0.4) and incubated with shaking at 32° C. until lysis (90-150 minutes). The lysates were centrifuged (6,000×g) and filtered (0.2 μm) to remove cell debris. The remaining kinases were produced in HEK-293 cells and subsequently tagged with DNA for qPCR detection.
Streptavidin-coated magnetic beads were treated with biotinylated small molecule ligands for 30 minutes at room temperature to generate affinity resins for kinase assays. The liganded beads were blocked with excess biotin and washed with blocking buffer (SeaBlock (Pierce), 1% BSA, 0.05% Tween 20, 1 mM DTT) to remove unbound ligand and to reduce non-specific phage binding. Binding reactions were assembled by combining kinases, liganded affinity beads, and test compounds in 1× binding buffer (20% SeaBlock, 0.17×PBS, 0.05% Tween 20, 6 mM DTT). Test compounds were prepared as 40× stocks in 100% DMSO and directly diluted into the assay. All reactions were performed in polypropylene 384-well plates in a final volume of 0.04 ml. […] The kinase concentration in the eluates was measured by qPCR. […]

T1 sequence (P35968 20-1356): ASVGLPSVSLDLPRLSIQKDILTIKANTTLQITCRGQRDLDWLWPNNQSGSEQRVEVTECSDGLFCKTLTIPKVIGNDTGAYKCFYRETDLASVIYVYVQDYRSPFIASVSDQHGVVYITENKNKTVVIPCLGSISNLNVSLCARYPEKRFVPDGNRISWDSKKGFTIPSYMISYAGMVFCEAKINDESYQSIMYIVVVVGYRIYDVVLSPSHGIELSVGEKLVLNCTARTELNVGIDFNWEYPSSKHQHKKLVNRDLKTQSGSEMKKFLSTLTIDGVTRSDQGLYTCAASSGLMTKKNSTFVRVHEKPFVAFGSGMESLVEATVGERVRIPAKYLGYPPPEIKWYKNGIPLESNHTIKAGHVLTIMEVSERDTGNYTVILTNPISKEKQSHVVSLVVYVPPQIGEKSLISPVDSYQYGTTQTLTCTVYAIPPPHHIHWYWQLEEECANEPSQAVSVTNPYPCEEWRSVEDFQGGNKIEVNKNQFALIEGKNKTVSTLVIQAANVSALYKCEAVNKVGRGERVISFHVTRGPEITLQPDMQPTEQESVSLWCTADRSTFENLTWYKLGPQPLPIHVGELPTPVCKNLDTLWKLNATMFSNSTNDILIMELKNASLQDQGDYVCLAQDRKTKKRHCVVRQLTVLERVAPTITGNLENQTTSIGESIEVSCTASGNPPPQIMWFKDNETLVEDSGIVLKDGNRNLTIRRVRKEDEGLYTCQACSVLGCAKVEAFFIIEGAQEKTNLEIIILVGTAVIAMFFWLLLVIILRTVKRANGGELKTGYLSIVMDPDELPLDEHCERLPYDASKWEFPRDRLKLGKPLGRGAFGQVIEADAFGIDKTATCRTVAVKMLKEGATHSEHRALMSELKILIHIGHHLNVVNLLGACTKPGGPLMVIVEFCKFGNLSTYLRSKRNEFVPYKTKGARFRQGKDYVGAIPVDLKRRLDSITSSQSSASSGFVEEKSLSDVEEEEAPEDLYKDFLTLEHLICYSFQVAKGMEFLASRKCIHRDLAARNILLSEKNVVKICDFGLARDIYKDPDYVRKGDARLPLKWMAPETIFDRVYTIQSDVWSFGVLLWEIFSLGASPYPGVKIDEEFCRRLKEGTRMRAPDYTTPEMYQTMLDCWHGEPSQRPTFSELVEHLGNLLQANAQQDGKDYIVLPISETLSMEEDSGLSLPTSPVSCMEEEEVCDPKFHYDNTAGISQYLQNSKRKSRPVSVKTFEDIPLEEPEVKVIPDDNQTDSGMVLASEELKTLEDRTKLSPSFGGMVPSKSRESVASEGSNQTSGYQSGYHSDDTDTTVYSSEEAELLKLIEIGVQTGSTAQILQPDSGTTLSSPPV

Q: `CCc1cc(O)c(F)cc1-c1cc(F)c2c(-c3nc4c([nH]3)CCN(C(=O)[C@]35C[C@H]3CCN5)C4)n[nH]c2c1` [Compound 1, (1S,5R)-2-azabicyclo[3.1.0]hexan-1-yl(2-(6-(2-ethyl-5-fluoro-4-hydroxyphenyl)-4-fluoro-1H-indazol-3-yl)-6,7-dihydro-3H-imidazo[4,5-c]pyridin-5(4H)-yl)methanone] was tested. Which inhibition at 1 µM did it give?
A: 47%
